Laboratory results as given in US9725442B2, “Heterocyclic derivative having PGD2 receptor antagonist activity” (Shionogi & Co., Ltd., priority 2011, dated 2017).
Like-named read-outs stand apart in the source and are kept apart here.

Columns and labels:
Human DP1 receptor = Human DP1 receptor (Homo sapiens (Human), UniProt Q13258); experiment: Human DP1 inhibitory activity in DP1-expressing cell (PGD2-induced cAMP); assay type: cell-based
Protocol: Compounds were categorized as AA (cAMP is less than 100 nM) and A (cAMP is more than 100 nM and less than 5000 nM) as shown in Table 99 and 100.

CRTH2 = CRTH2 (Homo sapiens (Human), UniProt Q9Y5Y4); experiment: CRTH2 receptor binding inhibitory activity ([3H]-PGD2 displacement, membranes of CRTH2-expressing K562 cell); details: [3H]-PGD2 displacement, membrane of CRTH2-expressing K562 cell, read-out: Ki
Sequence of CRTH2 (Q9Y5Y4 whole entry): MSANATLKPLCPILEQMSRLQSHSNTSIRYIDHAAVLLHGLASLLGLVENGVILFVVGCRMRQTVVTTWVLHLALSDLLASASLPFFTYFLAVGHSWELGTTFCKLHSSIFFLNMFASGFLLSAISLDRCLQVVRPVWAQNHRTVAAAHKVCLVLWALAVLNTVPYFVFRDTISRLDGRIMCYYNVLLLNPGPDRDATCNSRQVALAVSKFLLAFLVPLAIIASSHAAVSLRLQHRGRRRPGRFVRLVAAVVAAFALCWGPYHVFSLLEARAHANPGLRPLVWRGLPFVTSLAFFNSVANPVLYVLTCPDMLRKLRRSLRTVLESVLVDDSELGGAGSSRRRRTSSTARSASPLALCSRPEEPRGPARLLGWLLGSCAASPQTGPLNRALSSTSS
Method in brief: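 CRTH2-expressing K562 membranes (20 μg/well) in 50 mM Tris/HCl pH 7.4 with 10 mM MgCl2 were incubated with [3H]-PGD2 for 60 min at room temperature, then filtered.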

[1] = category of cAMP IC50, human DP1 receptor expressing Jurkut cell
[2] = CRTH2 receptor binding, categorized AAAA/AAA
[3] = IC50 of PGD2 (60 nM)-induced cAMP increase, human DP1 receptor expressing Jurkut cell

Sequence of Human DP1 receptor (Q13258 whole entry): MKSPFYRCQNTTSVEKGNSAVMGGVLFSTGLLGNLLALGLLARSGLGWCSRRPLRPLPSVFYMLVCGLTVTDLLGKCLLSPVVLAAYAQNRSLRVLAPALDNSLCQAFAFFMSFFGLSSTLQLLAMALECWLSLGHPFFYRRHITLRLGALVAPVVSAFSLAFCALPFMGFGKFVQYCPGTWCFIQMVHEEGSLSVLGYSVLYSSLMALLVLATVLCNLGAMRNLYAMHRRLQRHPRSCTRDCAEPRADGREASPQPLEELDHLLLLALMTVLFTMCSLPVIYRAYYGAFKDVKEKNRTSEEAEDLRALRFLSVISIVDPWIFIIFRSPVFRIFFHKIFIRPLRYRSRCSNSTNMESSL

Row | IC50 (Human DP1 receptor; [1]) | Ki (CRTH2; [2]) | Ki (CRTH2) | IC50 (Human DP1 receptor; [3]) | Compound
1 | 0.1 to 5 µM | < 0.1 µM | 0.021 µM |  | CCOc1ccc(S(=O)(=O)N2C[C@@H](C)[C@@H](n3nc(CC(=O)O)c4ccccc43)C2)c(CCCNC(C)=O)c1 [Compound I-260]
2 | 0.1 to 5 µM | 0.1 to 5 µM |  |  | CCOc1ccc(S(=O)(=O)N2C[C@@H](C)[C@@H](n3nc(CC(=O)O)c4ccccc43)C2)c(OC)c1 [Compound I-261]
3 | < 0.1 µM | 0.1 to 5 µM |  |  | CC(C)Oc1ccc(S(=O)(=O)N2C[C@@H](C)[C@@H](n3nc(CC(=O)O)c4cc(C#N)ccc43)C2)cc1 [Compound I-262]
4 | < 0.1 µM | < 0.1 µM |  |  | CC(C)Oc1ccc(S(=O)(=O)N2C[C@@H](C)[C@@H](n3nc(CC(=O)O)c4c(F)cccc43)C2)cc1 [Compound I-263]
5 | < 0.1 µM | < 0.1 µM |  |  | [2H]c1ccc2c(c1)c(CC(=O)O)nn2[C@H]1CN(S(=O)(=O)c2ccc(OCC)cc2)C[C@H]1C [Compound I-264]
6 | < 0.1 µM | < 0.1 µM |  |  | CCOc1ccc(S(=O)(=O)N2C[C@@H](C)[C@@H](n3nc(CC(=O)O)c4cc(C)ccc43)C2)cn1 [Compound I-265]
7 | 0.1 to 5 µM | 0.1 to 5 µM |  |  | C[C@@H]1CN(S(=O)(=O)C2CCCCC2)C[C@@H]1n1nc(CC(=O)O)c2ccccc21 [Compound I-266]
8 | < 0.1 µM | 0.1 to 5 µM |  |  | COc1ccc2c(c1)c(CC(=O)O)nn2[C@H]1CN(S(=O)(=O)c2ccc(OC(C)C)cc2)C[C@H]1C [Compound I-267]
9 | < 0.1 µM | < 0.1 µM |  |  | Cc1ccc2c(c1)c(CC(=O)O)nn2[C@H]1CN(S(=O)(=O)c2ccc(OCF)cc2)C[C@H]1C [Compound I-268]
10 | < 0.1 µM | < 0.1 µM |  |  | C[C@@H]1CN(S(=O)(=O)c2ccc(OCF)cc2)C[C@@H]1n1nc(CC(=O)O)c2ccc(F)cc21 [Compound I-269]
11 | < 0.1 µM | < 0.1 µM |  |  | C[C@@H]1CN(S(=O)(=O)c2ccc(OCF)cc2)C[C@@H]1n1nc(CC(=O)O)c2ccccc21 [Compound I-270]
12 | < 0.1 µM | < 0.1 µM |  |  | CCOc1ccc(S(=O)(=O)N2C[C@@H](C)[C@@H](n3cc(CC(=O)O)c4ccc(C)cc43)C2)cc1 [Compound I-271]
13 | < 0.1 µM | < 0.1 µM |  |  | CCOc1ccc(S(=O)(=O)N2C[C@@H](C)[C@@H](n3cc(CC(=O)O)c4ccc(C)cc43)C2)cn1 [Compound I-272]
14 | 0.1 to 5 µM | 0.1 to 5 µM |  |  | CCOCCCOc1ccc(S(=O)(=O)N2C[C@@H](C)[C@@H](n3nc(CC(=O)O)c4ccccc43)C2)cc1 [Compound I-273]
15 | 0.1 to 5 µM | < 0.1 µM |  |  | COCCCOc1ccc(S(=O)(=O)N2C[C@@H](C)[C@@H](n3nc(CC(=O)O)c4ccccc43)C2)cc1 [Compound I-274]
16 | 0.1 to 5 µM | 0.1 to 5 µM |  |  | CCOc1ccc(S(=O)(=O)N2C[C@H](n3nc(CC(=O)O)c4ccccc43)C[C@@H]2CF)cn1 [Compound I-275]
17 | < 0.1 µM | < 0.1 µM |  |  | C=Cc1cc(OCC)ccc1S(=O)(=O)N1C[C@@H](C)[C@@H](n2nc(CC(=O)O)c3ccccc32)C1 [Compound I-276]
18 | < 0.1 µM | < 0.1 µM |  |  | CCOc1ccc(S(=O)(=O)N2C[C@@H](C)[C@@H](n3nc(CC(=O)O)c4ccccc43)C2)c(CO)c1 [Compound I-277]
19 | 0.1 to 5 µM | < 0.1 µM |  |  | C#Cc1cc(OCC)ccc1S(=O)(=O)N1C[C@@H](C)[C@@H](n2nc(CC(=O)O)c3ccccc32)C1 [Compound I-278]
20 | 0.1 to 5 µM | < 0.1 µM |  |  | CCOc1ccc(S(=O)(=O)N2C[C@@H](C)[C@@H](n3nc(CC(=O)O)c4ccccc43)C2)c(/C=C/CO)c1 [Compound I-279]
21 | 0.1 to 5 µM | < 0.1 µM | 0.0078 µM |  | CCOc1ccc(S(=O)(=O)N2C[C@@H](C)[C@@H](n3nc(CC(=O)O)c4ccccc43)C2)c(CCCO)c1 [Compound I-280]
22 | 0.1 to 5 µM | < 0.1 µM | 0.01 µM |  | CCOc1ccc(S(=O)(=O)N2C[C@@H](C)[C@@H](n3cc(CC(=O)O)c4ccc(-c5ncco5)cc43)C2)cc1 [Compound I-282]
23 | < 0.1 µM | 0.1 to 5 µM |  |  | CCOc1ccc(S(=O)(=O)N2C[C@@H](C)[C@@H](n3nc(C(C)(O)C(=O)O)c4ccccc43)C2)cc1 (stereo partly drawn) [Compound I-283]
24 | 0.1 to 5 µM | 0.1 to 5 µM |  |  | CCOc1ccc(S(=O)(=O)N2C[C@@H](C)[C@@H](n3nc(C(C)(OC)C(=O)O)c4ccccc43)C2)cc1 (stereo partly drawn) [Compound I-285]
25 | 0.1 to 5 µM | < 0.1 µM | 0.04 µM | 0.1 µM | Cc1ccc(S(=O)(=O)N2C[C@@H](C)[C@@H](n3c(C)c(CC(=O)O)c4ccccc43)C2)cc1 [Compound I-288]
26 | 0.1 to 5 µM | 0.1 to 5 µM |  |  | CC(C)Oc1ccc(S(=O)(=O)N2C[C@H](n3nc(CC(=O)O)c4ccc(F)cc43)C[C@@H]2COCCCOc2ccccc2)cc1 [Compound I-289]

Row | IC50 (Human DP1 receptor; [1]) | Ki (CRTH2; [2]) | Ki (CRTH2) | IC50 (Human DP1 receptor; [3]) | Compound
27 | < 0.1 µM | 0.1 to 5 µM |  |  | CCOc1ccc(S(=O)(=O)N2C[C@@H](C)[C@@H](n3nc(C(F)(F)C(=O)O)c4ccccc43)C2)cc1 [Compound I-290]
28 | 0.1 to 5 µM | 0.1 to 5 µM |  |  | COCCOCCOC[C@H]1C[C@@H](n2nc(CC(=O)O)c3ccc(F)cc32)CN1S(=O)(=O)c1ccc(OC(C)C)cc1 [Compound I-291]
29 | < 0.1 µM | 0.1 to 5 µM |  |  | CC(C)Oc1ccc(S(=O)(=O)N2C[C@H](n3nc(CC(=O)O)c4ccc(F)cc43)C[C@@H]2COc2ccccc2O)cc1 [Compound I-292]
30 | 0.1 to 5 µM | 0.1 to 5 µM |  |  | CCOc1ccc(S(=O)(=O)N2C[C@H](n3nc(CC(=O)O)c4ccccc43)[C@H](C)[C@H]2C#N)cn1 [Compound I-293]
31 | 0.1 to 5 µM | 0.1 to 5 µM |  |  | CCOc1ccc(S(=O)(=O)N2C[C@@H](n3nc(CC(=O)O)c4ccccc43)[C@H](C)[C@H]2C#N)cc1 [Compound I-294]
32 | < 0.1 µM | 0.1 to 5 µM |  |  | CC(C)Oc1ccc(S(=O)(=O)N2C[C@H](n3nc(CC(=O)O)c4ccc(F)cc43)C[C@@H]2COc2cccc(I)c2)cc1 [Compound I-295]
33 | 0.1 to 5 µM | 0.1 to 5 µM |  |  | CCOc1ccc(S(=O)(=O)N2C[C@@H](C)[C@@H](n3nc(Cc4noc(=O)[nH]4)c4ccccc43)C2)cc1 [Compound I-296]
34 | 0.1 to 5 µM | 0.1 to 5 µM |  |  | CCOc1ccc(S(=O)(=O)N2C[C@@H](C)[C@@H](n3nc(CC4=NNC(=O)C4)c4ccccc43)C2)cc1 [Compound I-297]
35 | 0.1 to 5 µM | 0.1 to 5 µM |  |  | CCOc1ccc(S(=O)(=O)N2C[C@H](n3nc(CC(=O)O)c4ccccc43)[C@@H](C)[C@@H]2C(N)=O)cc1 [Compound I-298]
36 | 0.1 to 5 µM | 0.1 to 5 µM |  |  | CC(C)Oc1ccc(S(=O)(=O)N2C[C@H](n3nc(CC(=O)O)c4ccc(F)cc43)C[C@@H]2Cn2ncnn2)cc1 [Compound I-299]
37 | 0.1 to 5 µM | < 0.1 µM |  |  | CC(C)Oc1ccc(S(=O)(=O)N2C[C@H](n3nc(CC(=O)O)c4ccc(F)cc43)C[C@H]2COc2nc3ccccc3s2)cc1 [Compound I-300]
38 | 0.1 to 5 µM | 0.1 to 5 µM |  |  | CC(C)Oc1ccc(S(=O)(=O)N2C[C@@H](n3nc(CC(=O)O)c4ccc(F)cc43)C[C@@H]2c2ccccc2F)cc1 [Compound I-301]
39 | 0.1 to 5 µM | 0.1 to 5 µM |  |  | CC(C)Oc1ccc(S(=O)(=O)N2C[C@H](n3nc(CC(=O)O)c4ccc(F)cc43)C[C@@H]2c2ccccc2F)cc1 [Compound I-302]
40 | < 0.1 µM | 0.1 to 5 µM |  |  | CC(C)Oc1ccc(S(=O)(=O)N2C[C@H](n3nc(CC(=O)O)c4ccc(F)cc43)C[C@@H]2COc2cccc(F)c2)cc1 [Compound I-303]
41 | < 0.1 µM | < 0.1 µM |  |  | CCOc1ccc(S(=O)(=O)N2C[C@H](n3nc(CC(=O)O)c4ccccc43)[C@@H](C)[C@@H]2C#N)cc1 [Compound I-304]
42 | 0.1 to 5 µM | 0.1 to 5 µM |  |  | CCS(=O)(=O)CCOc1ccc(S(=O)(=O)N2C[C@@H](C)[C@@H](n3nc(CC(=O)O)c4ccccc43)C2)cc1 [Compound I-305]
43 | < 0.1 µM | < 0.1 µM |  |  | CCSCCOc1ccc(S(=O)(=O)N2C[C@@H](C)[C@@H](n3nc(CC(=O)O)c4ccccc43)C2)cc1 [Compound I-308]
44 | 0.1 to 5 µM | 0.1 to 5 µM |  |  | CCOc1ccc(S(=O)(=O)N2C[C@@H](n3nc(CC(=O)O)c4ccccc43)[C@](C)(F)C2)cc1 [Compound I-310]
45 | 0.1 to 5 µM | 0.1 to 5 µM |  |  | CCOc1ccc(S(=O)(=O)N2C[C@@H](C)[C@@H](n3nc(CC(=O)NO)c4ccccc43)C2)cc1 [Compound I-311]
46 | < 0.1 µM | < 0.1 µM |  |  | CCOc1ccc(S(=O)(=O)N2C[C@@H](C)[C@@H](n3nc(CC(=O)O)c4ccccc43)C2)c(C(C)O)c1 (stereo partly drawn) [Compound I-312]
47 | 0.1 to 5 µM | < 0.1 µM |  |  | CCOc1ccc(S(=O)(=O)N2C[C@H](F)[C@@H](n3nc(CC(=O)O)c4ccccc43)C2)cc1 [Compound I-313]
48 | 0.1 to 5 µM | < 0.1 µM |  |  | CCOc1ccc(S(=O)(=O)N2C[C@@H](C)[C@@H](n3nc(CC(=O)O)c4ccccc43)C2)c(CCO)c1 [Compound I-314]
49 | < 0.1 µM | 0.1 to 5 µM |  |  | CCOc1ccc(S(=O)(=O)N2C[C@H](n3c(C)c(CC(=O)O)c4ccccc43)C[C@@H]2C)cc1 [Compound I-315]
50 | 0.1 to 5 µM | 0.1 to 5 µM | 0.22 µM | 0.11 µM | Cc1c(CC(=O)O)c2ccccc2n1[C@@H]1C[C@H](C)N(S(=O)(=O)c2ccc(OC(F)F)cc2)C1 [Compound I-316]
51 | 0.1 to 5 µM | 0.1 to 5 µM |  |  | Cc1c(CC(=O)O)c2ccccc2n1[C@@H]1C[C@H](C)N(S(=O)(=O)c2ccc(F)cc2)C1 [Compound I-317]
52 | 0.1 to 5 µM | 0.1 to 5 µM |  |  | Cc1ccc(S(=O)(=O)N2C[C@H](n3c(C)c(CC(=O)O)c4ccccc43)C[C@@H]2C)cc1 [Compound I-318]
